Measurements taken from patent publication US9340538B2, “Dihydropyrimidine compounds and their application in pharmaceuticals” (SUNSHINE LAKE PHARMA CO., LTD., priority 2013, dated 2016).
Read-outs that look alike come from different tables or passages of the source.

Tests used:
[1] = system: HBV; experiment: In-vitro anti-HBV activity in stable HBV-producing cell line (HepG2.2.15), HBV DNA in culture fluid by qPCR; assay type: cell-based; conditions: Hepatitis B virus, read-out: HBV (% Inh.) (500 nmol)
Protocol: In-Vitro Anti-HBV Activity of Compounds in Stable HBV-Producing Cell Line (HepG2.2.15)
HBV DNA contents in cell culture fluid were detected by the qPCR-based assay and percents of HBV inhibition by compounds (% Inh) were calculated. Specific procedures are as follows:
HepG2.2.15 cells were seeded into each well of 96-well plates, 40,000 cells per well. Cells were treated with cell culture medium containing compounds 24 hours after cell seeding. Each compound to detected percent inhibition was in duplicate and the final concentration of each compound was 500 nmol in each well. The compound-containing mediums were refreshed on day 4 post cell seeding. Culture media were collected from the HepG2.2.15 plates on day 7 post cell seeding followed by HBV DNA extraction.
HBV DNA extraction: using QIAamp 96 DNA Blood Kit (QIAGEN 51161).
PCR for quantification: PCR mix was prepared according to PCR system; PCR mix was dispensed to 384-well optical reaction plates (special for quantification); The standard diluted proportionally was added; The sample was added; The plates were sealed with optical adhesive film; PCR system was performed according to programs.
Percent of HBV inhibition of DNA replication by compound was calculated using the following equation: % Inh.=[1-HBV DNA quantity of sample/HBV DNA quantity of DMSO control]*100. II. Assay Results

[2] = Test compounds' PK assay in ICR mice; assay type: in vivo; conditions: mouse, plasma, 10 mg/kg; for AUC(0-t): AUC in 0-24 hours; for AUC(0-inf): AUC in 0 hour to infinite time
Protocol: The test compounds were poured into ICR mice stomach through mouth with 10 mg/kg or administered 2 mg/kg or 10 mg/kg to ICR mice by tail-intravenous injection. Blood sample of orbital vein was taken at 0.083, 0.25, 0.5, 1, 2, 4, 6, 8 and 24 hours after administration, and collected in anticoagulation tube added with EDTA-K2. The test compounds were extracted from plasma samples and chromatographed on a tandem mass spectrometer. Quantitation was performed using multiple reaction monitoring (MRM). Pharmacokinetic parameters were calculated using WinNonlin 6.1 software with non compartment model.

[3] = 168 h, 500 nmol final concentration, HepG2.2.15 cells, HBV DNA in culture media on day 7 post seeding, vs DMSO control

Structure (SMILES)	inhibition at 0.5 µM [1, 3] [%]	further results
CCOC(=O)C1=C(CN2CCOC[C@H]2C(=O)NCCOC(C)=O)NC(c2nccs2)=NC1c1ccc(F)cc1Br (stereo partly drawn) [Example 55, Ethyl 6-(((S)-3-((2-acetoxyethyl)carbamoyl)morpholino)methyl)-4-(2-bromo-4-fluorophenyl)-2-(thiazol-2-yl)-1,4-dihydropyrimidine-5-carboxylate]	93	–
CCOC(=O)C1=C(CN2CCOC[C@H]2C(=O)N(C)OC)NC(c2nccs2)=NC1c1ccc(F)cc1Br (stereo partly drawn) [Example 60, Ethyl 4-(2-bromo-4-fluorophenyl)-6-(((S)-3-(methoxy(methyl)carbamoyl)morpholino)methyl)-2-(thiazol-2-yl)-1,4-dihydropyrimidine-5-carboxylate]	94	–
CCOC(=O)C1=C(CN2CCOC[C@H]2C(=O)O)NC(c2nc(CC(=O)OC)cs2)=NC1c1ccc(F)cc1Br (stereo partly drawn) [Example 61, (3S)-4-((6-(2-bromo-4-fluorophenyl)-5-(ethoxycarbonyl)-2-(4-(2-methoxy-2-oxoethyl)thiazol-2-yl)-3,6-dihydropyrimidin-4-yl)methyl)morpholine-3-carboxylic acid]	91.1	–
CCOC(=O)C1=C(CN2CCO[C@H](CO)C2)NC(c2nccs2)=NC1c1ccc(F)cc1Br (stereo partly drawn) [Example 66, Ethyl 4-(2-bromo-4-fluorophenyl)-6-(((S)-2-(hydroxymethyl)morpholino)methyl)-2-(thiazol-2-yl)-1,4-dihydropyrimidine-5-carboxylate]	–	inhibition at 0.5 µM ([1]; HepG2.2.15, 168 h): 88.8%
CCOC(=O)C1=C(CN2CCOCC2C(=O)O)NC(c2nnc(C)s2)=NC1c1ccc(F)cc1Br (stereo not drawn) [Example 69, 4-((6-(2-bromo-4-fluorophenyl)-5-(ethoxycarbonyl)-2-(5-methyl-1,3,4-thiadiazol-2-yl)-3,6-dihydropyrimidin-4-yl)methyl)morpholine-3-carboxylic acid]	36.5	–
CCOC(=O)C1=C(CN2CCOCC2C(=O)O)NC(c2nncs2)=NC1c1ccc(Cl)cc1Cl (stereo not drawn) [Example 70, 4-((6-(2,4-dichlorophenyl)-5-(ethoxycarbonyl)-2-(1,3,4-thiadiazol-2-yl)-3,6-dihydropyrimidin-4-yl)methyl)morpholine-3-carboxylic acid]	63.6	–
CCOC(=O)C1=C(CN2CCOCC2C(=O)O)NC(c2nncs2)=NC1c1ccc(F)cc1Br (stereo not drawn) [Example 71, 4-((6-(2-bromo-4-fluorophenyl)-5-(ethoxycarbonyl)-2-(1,3,4-thiadiazol-2-yl)-3,6-dihydropyrimidin-4-yl)methyl)morpholine-3-carboxylic acid]	43.4	–
CCOC(=O)C1=C(CN2CCOC(CC(=O)O)C2)NC(c2nccs2)=NC1c1ccc(F)cc1Br (stereo not drawn) [Example 74, 2-(4-((6-(2-bromo-4-fluorophenyl)-5-(ethoxycarbonyl)-2-(thiazol-2-yl)-3,6-dihydropyrimidin-4-yl)methyl)morpholin-2-yl)acetic acid]	91.7	clearance ([2]; iv): 0.93 L/h/kg; half-life ([2]; iv): 1.02 h; AUC(0-t) ([2]; iv): 10.6 µg·h/mL; AUC(0-inf) ([2]; iv): 11.2 µg·h/mL; Vd ([2]; iv, read-out: Vss): 0.82 L/kg; Cmax ([2]; po): 7.33 µg/mL; Tmax ([2]; po): 0.25 h; half-life ([2]; po): 1.18 h; AUC(0-t) ([2]; po): 7.89 µg·h/mL; AUC(0-inf) ([2]; po): 8.17 µg·h/mL; bioavailability ([2]; po, read-out: F (absolute bioavailability)): 74.2%
CCOC(=O)C1=C(CN2CCOCC2C(=O)OC(C)C)NC(c2nccs2)=NC1c1ccc(F)cc1Br (stereo not drawn) [Example 77, Isopropyl 4-((6-(2-bromo-4-fluorophenyl)-5-(ethoxycarbonyl)-2-(thiazol-2-yl)-3,6-dihydropyrimidin-4-yl)methyl)morpholine-3-carboxylate]	91.9	–
CCOC(=O)C1=C(CN2CCOCC2C(=O)OC(C)C)NC(c2nccs2)=NC1c1ccc(Cl)cc1Cl (stereo not drawn) [Example 78, Isopropyl 4-((6-(2,4-dichlorophenyl)-5-(ethoxycarbonyl)-2-(thiazol-2-yl)-3,6-dihydropyrimidin-4-yl)methyl)morpholine-3-carboxylate]	87.9	–
CCOC(=O)C1=C(CN2CCOCC2C(=O)OCOC(=O)OC(C)C)NC(c2nccs2)=NC1c1ccc(Cl)cc1Cl (stereo not drawn) [Example 80, ((Isopropoxycarbonyl)oxy)methyl 4-((6-(2,4-dichlorophenyl)-5-(ethoxycarbonyl)-2-(thiazol-2-yl)-3,6-dihydropyrimidin-4-yl)methyl)morpholine-3-carboxylate]	91.9	–
CCOC(=O)C1=C(CN2CCOCC2C(=O)NC(C)C)NC(c2nccs2)=NC1c1ccc(Cl)cc1Cl (stereo not drawn) [Example 81, Ethyl 4-(2,4-dichlorophenyl)-6-((3-(isopropylcarbamoyl)morpholino)methyl)-2-(thiazol-2-yl)-1,4-dihydropyrimidine-5-carboxylate]	91.9	–
CCOC(=O)C1=C(CN2CCOCC2C(=O)NC(C)C)NC(c2nccs2)=NC1c1ccc(F)cc1Br (stereo not drawn) [Example 82, Ethyl 4-(2-bromo-4-fluorophenyl)-6-((3-(isopropylcarbamoyl)morpholino)methyl)-2-(thiazol-2-yl)-1,4-dihydropyrimidine-5-carboxylate]	96	–
CCOC(=O)C1=C(CN2CCOC(C(=O)O)C2)NC(c2ncn(C)n2)=NC1c1ccc(F)cc1Br (stereo not drawn) [Example 83, 4-((6-(2-bromo-4-fluorophenyl)-5-(ethoxycarbonyl)-2-(1-methyl-1H-1,2,4-triazol-3-yl)-3,6-dihydropyrimidin-4-yl)methyl)morpholine-2-carboxylic acid]	36	–
CCOC(=O)C1=C(CN2CCOCC2C(=O)O)NC(c2nc(C(F)(F)F)cs2)=NC1c1ccc(Cl)cc1Cl (stereo not drawn) [Example 119, 4-((6-(2,4-dichlorophenyl)-5-(ethoxycarbonyl)-2-(4-(trifluoromethyl)thiazol-2-yl)-3,6-dihydropyrimidin-4-yl)methyl)morpholine-3-carboxylic acid]	94	–
CCOC(=O)C1=C(CN2CCOCC2C(=O)O)NC(c2ncc(F)s2)=NC1c1ccc(F)cc1Cl (stereo not drawn) [Example 121, 4-((6-(2-chloro-4-fluorophenyl)-5-(ethoxycarbonyl)-2-(5-fluorothiazol-2-yl)-3,6-dihydropyrimidin-4-yl)methyl)morpholine-3-carboxylic acid]	48.5	–
CCOC(=O)C1=C(CN2CCOCC2C(=O)O)NC(c2ncc(F)s2)=NC1c1ccc(Cl)cc1Cl (stereo not drawn) [Example 122, 4-((6-(2,4-dichlorophenyl)-5-(ethoxycarbonyl)-2-(5-fluorothiazol-2-yl)-3,6-dihydropyrimidin-4-yl)methyl)morpholine-3-carboxylic acid]	46.2	–
CCOC(=O)C1=C(CN2CCOCC2C(=O)O)NC(c2ncn(C)n2)=NC1c1ccc(F)cc1Br (stereo not drawn) [Example 123, 4-((6-(2-bromo-4-fluorophenyl)-5-(ethoxycarbonyl)-2-(1-methyl-1H-1,2,4-triazol-3-yl)-3,6-dihydropyrimidin-4-yl)methyl)morpholine-3-carboxylic acid]	37.5	–
CCOC(=O)C1=C(CN2CCOCC2C(=O)O)NC(c2nccn2C)=NC1c1ccc(F)cc1Br (stereo not drawn) [Example 125, 4-((6-(2-bromo-4-fluorophenyl)-5-(ethoxycarbonyl)-2-(1-methyl-1H-imidazol-2-yl)-3,6-dihydropyrimidin-4-yl)methyl)morpholine-3-carboxylic acid]	92.5	–
CCOC(=O)C1=C(CN2CCOC(CCCO)C2)NC(c2nccs2)=NC1c1ccc(F)cc1Br (stereo not drawn) [Example 133, Ethyl 4-(2-bromo-4-fluorophenyl)-6-((2-(3-hydroxypropyl)morpholino)methyl)-2-(thiazol-2-yl)-1,4-dihydropyrimidine-5-carboxylate]	92.6	–
CCOC(=O)C1=C(CN2CCOC(CCC(N)=O)C2)NC(c2nccs2)=NC1c1ccc(F)cc1Br (stereo not drawn) [Example 135, Ethyl 6-((2-(3-amino-3-oxopropyl)morpholino)methyl)-4-(2-bromo-4-fluorophenyl)-2-(thiazol-2-yl)-1,4-dihydropyrimidine-5-carboxylate]	93.3	–
CCOC(=O)C1=C(CN2CCOCC2C(=O)NC)NC(c2nccs2)=NC1c1ccc(F)cc1Br (stereo not drawn) [Example 136, Ethyl 4-(2-bromo-4-fluorophenyl)-6-((3-(methylcarbamoyl)morpholino)methyl)-2-(thiazol-2-yl)-1,4-dihydropyrimidine-5-carboxylate]	95.8	–
